Data reported in patent US20080249043A1, “Methods and Compositions Involving Protein Kinase C-Delta” (priority 2004, published 2008).

Tests used:
Type in all cases: cell-based
PLS3 = PLS3 threonine phosphorylation: Ni-bead pulldown of His-tagged PLS3, Western blot with PT antibody, HeLa cells; settings: HeLa cells with His-tagged PLS3, AD198 0, 2, 4 and 6 h
Description: Pulldown of His-tagged proteins from transfected HeLa cells—Transfected HeLa cells were washed with ice-cold phosphate-buffered saline (PBS) and incubated in the lysis buffer (50 mM NaH2PO4, 500 mM NaCl, 20 mM imidazole, 1% Triton X-100, 20 mM 2-mercaptoethanol, pH8.0) for 5 min and sonicated briefly on ice. The lysates were centrifuged at 10,000×g for 10 min at 4° C. The supernatant was saved and the protein concentration was measured with the Bio-Rad protein assay (Bio-Rad Laboratories, Hercules, Calif.) and adjusted to same concentrations for each sample. The supernatants were incubated with Ni-beads on a shaker for 2 h at 4° C. Beads were then pelleted at 800×g for 2 min at 4° C. and washed with ice-cold wash buffer (50 mM NaH2PO4, 500 mM NaCl, 20 mM imidazole, 1% Triton X-100, pH8.0) for five times. Beads were resuspended in SDS sample buffer and analyzed by Western blotting.
Western blot analysis—Equal amounts of protein were analyzed by 10% SDS-PAGE and electrotransferred to Immobilon-P membranes (Millipore Corporation, Bedford, Mass.). Monoclonal PKC-δ, PT, and β-actin and polyclonal VDAC antibodies were used at 1:1,000 and polyclonal PLS3 antibody was used at 1:2,000 for immunoblotting. Secondary anti-mouse or anti-rabbit antibodies conjugated with horseradish peroxidase were used at 1:2,000 and incubated with the membrane for 1 h at room temperature. […]

[1] = system: mitochondria from HeLa cells; test: tBid-binding capacity of mitochondria isolated from HeLa cells (FITC-tBid(G94E)); settings: 5 μM AD198 4 h, versus DMSO-treated control cells
Description: (a) Increased tBid-binding capacity by AD198. Mitochondria were isolated from HeLa cells treated with 5 μM AD198 or DMSO as control for 4 h. Mitochondria (50 μg by protein) were incubated with 0, 10, 20, 60 and 100 ng/μl FITC-tBid(G94E) in total volume 50 μl for […] followed by washing to remove unbounded probes. The fluorescent intensity was quantified with Bio-Tek microplate reader. Error bars indicate standard deviations of three independent experiments. (b) Dose response with mitochondria. Various amounts of mitochondria in (a) were incubated with 10 ng/μl tBid(G94E)-FITC as in (a). The fluorescent intensity of the washed mitochondria was quantified with Bio-Tek microplate reader. (c) Expression of PLS3 or PLS3(T21D) in selected HeLa cells. […] The tBid-binding capacity of the mitochondria from each cells were analyzed as in (a). […] Mitochondria were isolated from cells in (c) and analyzed as in (b).
Analysis of the tBid-binding capacity of mitochondria—Isolated mitochondria were incubated with FITC-tBid(G94E) in 50 μl reaction buffer (250 mM sucrose, 20 mM HEPES, 10 mM KCl, 3 mM KH2PO4, 1.5 mM MgCl2, 1 mM EGTA, 0.5% mg/ml BSA, PH 7.4) for 30 min at room temperature. Mitochondria were pelleted at 10,000×g and washed extensively with the reaction buffer to remove unbound FITC-tBid(G94E) and the fluorescence intensity was quantified with Bio-Tek microplate reader.

HeLa cells = test: CL distribution in mitochondria by NAO staining and flow cytometry in HeLa cells; settings: 5 μM AD198 4 h
Description: (a) HeLa cells were treated with 5 μM AD198 or DMSO as control for 4 h. Cells were stained with different concentrations of NAO and the median fluorescent intensity was determined by flow cytometry. (b) The median fluorescent intensity value of control cells stained with 35 μM NAO was considered as 100% and used to calculate the percentages in each NAO concentration. Results were average of two independent experiments. (c) After transfection for 48 h, HeLa-control, HeLa-PLS3 and HeLa-PLS3(T21D) cells were stained with different concentrations of NAO and the median fluorescent intensity was determined by flow cytometry. The median fluorescent intensity value of 35 μM NAO was considered as 100% and used to calculate the percentage in each NAO concentration. Results were average of two independent experiments.
Analysis of CL distribution in the mitochondria outer membrane—NAO was used to determine the distribution of CL in mitochondria (Garcia Fernandez, et al. Anal Biochem 328:174-180 (2004)). When NAO binds CL at 2:1 ratio (in the saturated state), fluorescence emission occurs at 630 nm. When cells were incubated with increasing concentrations of NAO, NAO saturates CL in the outer member first and then the inner member of mitochondria. Lower concentrations of NAO (2.5-12 μM) were used to saturate CL in the mitochondrial outer member and to measure the amount of CL in that compartment. […]

Compound: CCCCC(=O)OCC(=O)[C@]1(O)Cc2c(O)c3c(c(O)c2[C@@H](O[C@H]2C[C@H](NCc4ccccc4)[C@H](O)[C@H](C)O2)C1)C(=O)c1c(OC)cccc1C3=O [AD198, N-benzyladriamycin-14-valerate]
- threonine phosphorylation of PLS3 (PLS3): steadily increased
- tBid-binding capacity of mitochondria [1]: significantly higher tBid-binding capacity
- absolute NAO fluorescence (amount of CL) (HeLa cells; HeLa cells): decrease in absolute NAO fluorescence
- percentage of CL in the outer membrane (HeLa cells; NAO concentrations lower than 9 μM): higher percentage of CL than control cells
